Results reported in publication PMC6277767, “Broad and Region-Specific Impacts of the Synthetic Cannabinoid CP 55,940 in Adolescent and Adult Female Mouse Brains” (Frontiers in Molecular Neuroscience, 2018).

Tested on: CD1 female mouse brain lipidome
Experiment: Brain-region lipid levels (HPLC/MS/MS lipidomics) 2 h after single i.p. 3 mg/kg CP 55,940 vs vehicle
Assay type: in vivo
Method: The Bloomington Institutional Animal Care and Use Committee of Indiana University reviewed and approved the animal procedures. Female mice from the CD1 strain were utilized to match our study examining THC’s effects on the brain lipidome ([Leishman et al., 2018]). Mice were given a single i.p. injection of either 3 mg/kg CP or 1:1:18 cremophor:ethanol:saline vehicle (please refer to the section “3 mg/kg CP Is Relevant for Synthetic Cannabinoid Abuse and Has Stronger Effects on the Female Mouse Brain Lipidome During Adolescence” for a justification of dose and use of female mice). Three different age groups were given injections: PND 35 and PND 50 adolescents, and adult mice (PND 113). At least eight mice in each age group received CP and at least eight received vehicle. Matching the THC study time course ([Leishman et al., 2018]), mice were sacrificed via rapid decapitation 2 h after injection. Brains were immediately removed and flash-frozen in liquid nitrogen, and then stored at -80°C until dissections were performed. Brains were dissected on an ice-cold dissection plate into the following regions: STR, HIPP, CER, THAL, CTX, HYP, MID, and STEM. These abbreviations for these brain areas will be used exclusively when discussing the results generated by these specific dissections. Each dissected area was immediately placed in liquid nitrogen and then stored at -80°C until used for lipid extraction.
Tissue extracts were performed as previously described ([Bradshaw et al., 2006]; [Stuart et al., 2013]; [Raboune et al., 2014]; [Leishman et al., 2016a],[b], [2017], [2018]). First, samples were shock frozen in liquid nitrogen, weighed, and transferred to a centrifuge tube. The mass of the largest sample was multiplied by 50 to determine how many milliliters of HPLC-grade methanol (Fisher, Fair Lawn, NJ, United States) to add. Then, samples were spiked with 500 pmol deuterium-labeled NAGly (d8NAGly; Cayman Chemical, Ann Arbor, MI, United States). Samples were placed on ice in darkness for 2 h then individually homogenized and centrifuged at 19,000 × g for 20 min at 20°C. Supernatants were diluted with HPLC water (purified in house) to make a solution of 75% water, 25% supernatant. Lipids were partially purified on C18 solid phase extraction columns (Agilent, Palo Alto, CA, United States). A series of four elutions with 1.5 mL of 60%, 75%, 85%, and 100% methanol were collected ([Stuart et al., 2013]; [Leishman et al., 2016a],[b], [2018]).
As previously described ([Bradshaw et al., 2006]; [Tan et al., 2006]; [Smoum et al., 2010]; [Stuart et al., 2013]; [Tortoriello et al., 2013]; [Raboune et al., 2014]; [Leishman et al., 2016a],[b], [2017], [2018]), samples were analyzed using an Applied Biosystems API 3000 triple quadrupole mass spectrometer with electrospray ionization (Foster City, CA, United States). Using an Agilent XDB-C18 reversed phase analytical column and optimized mobile phase gradients, 20 μL from each elution were chromatographed. Two Shimadzu 10ADvp pumps (Columbia, MD, United States) provided the pressure for gradient elution. Mobile phase A: 20% methanol, 80% water (v/v) and 1 mM ammonium acetate (Sigma, St. Louis, MO, United States). Mobile phase B: 100% methanol, 1 mM ammonium acetate. Every method run began with 0% mobile phase B, reached 100% mobile phase B flowing at 0.2 mL/min, and gradually returned to 0% mobile phase B.
This screening library will be referred to as the lipidome when discussing data from this study. HPLC/MS/MS data were analyzed using Analyst software (Applied Biosystems) ([Bradshaw et al., 2006]; [Tan et al., 2006]; [Stuart et al., 2013]; [Tortoriello et al., 2013]; [Raboune et al., 2014]; [Leishman et al., 2016a],[b], [2017], [2018]). Chromatograms (Supplementary Figure 3) were generated by determining the retention time of analytes from the analytical column with a [M-1] or [M+1] parent peak and a fragmentation peak corresponding to the programmed values. […]

SMILES: CCCCCCC(C)(C)c1ccc([C@@H]2C[C@H](O)CC[C@H]2CCCO)c(O)c1 [CP 55,940]
- PGF2α level vs vehicle (PND 35 STR): ↑ (1-1.49 times higher than vehicle)
- 2-linoleoyl glycerol level vs vehicle (PND 35 THAL): ↓ (1-1.49 times lower than vehicle)
- 6-ketoPGF1α level vs vehicle (PND 35 THAL): ↓ (1-1.49 times lower than vehicle)
- N- stearoyl valine level vs vehicle (PND 35 THAL): ↑ (1-1.49 times higher than vehicle)
- N-arachidonoyl GABA level vs vehicle (PND 35 THAL): ↓ (1-1.49 times lower than vehicle)
- N-arachidonoyl alanine level vs vehicle (PND 35 THAL): ↓ (1-1.49 times lower than vehicle)
- N-arachidonoyl ethanolamine level vs vehicle (PND 35 THAL): ↑ (1-1.49 times higher than vehicle)
- N-arachidonoyl glycine level vs vehicle (PND 35 THAL): ↓ (1-1.49 times lower than vehicle)
- N-arachidonoyl phenylalanine level vs vehicle (PND 35 THAL): ↑ (1-1.49 times higher than vehicle)
- N-arachidonoyl serine level vs vehicle (PND 35 THAL): ↓ (1-1.49 times lower than vehicle)
- N-arachidonoyl taurine level vs vehicle (PND 35 THAL): ↓ (1-1.49 times lower than vehicle)
- N-docosahexaenoyl GABA level vs vehicle (PND 35 THAL): ↓ (1-1.49 times lower than vehicle)
- N-docosahexaenoyl alanine level vs vehicle (PND 35 THAL): ↓ (1-1.49 times lower than vehicle)
- N-docosahexaenoyl glycine level vs vehicle (PND 35 THAL): ↓ (1-1.49 times lower than vehicle)
- N-docosahexaenoyl leucine level vs vehicle (PND 35 THAL): ↑↑ (1.50-1.99 times higher than vehicle)
- N-docosahexaenoyl phenylalanine level vs vehicle (PND 35 THAL): ↑ (1-1.49 times higher than vehicle)
- N-linoleoyl ethanolamine level vs vehicle (PND 35 THAL): ↑ (1-1.49 times higher than vehicle)
- N-oleoyl GABA level vs vehicle (PND 35 THAL): ↓ (1-1.49 times lower than vehicle)
- N-oleoyl alanine level vs vehicle (PND 35 THAL): ↓ (1-1.49 times lower than vehicle)
- N-oleoyl glycine level vs vehicle (PND 35 THAL): ↓ (1-1.49 times lower than vehicle)
- N-oleoyl leucine level vs vehicle (PND 35 THAL): ↑ (1-1.49 times higher than vehicle)
- N-oleoyl valine level vs vehicle (PND 35 THAL): ↑ (1-1.49 times higher than vehicle)
- N-palmitoyl GABA level vs vehicle (PND 35 THAL): ↑ (1-1.49 times higher than vehicle)
- N-palmitoyl leucine level vs vehicle (PND 35 THAL): ↑ (1-1.49 times higher than vehicle)
- N-palmitoyl phenylalanine level vs vehicle (PND 35 THAL): ↑ (1-1.49 times higher than vehicle)
- N-palmitoyl tyrosine level vs vehicle (PND 35 THAL): ↑ (1-1.49 times higher than vehicle)
- N-palmitoyl valine level vs vehicle (PND 35 THAL): ↑↑ (1.50-1.99 times higher than vehicle)
- N-stearoyl serine level vs vehicle (PND 35 THAL): ↓ (1-1.49 times lower than vehicle)
- N-stearoyl tyrosine level vs vehicle (PND 35 THAL): ↓ (1-1.49 times lower than vehicle)
- PGE2 level vs vehicle (PND 35 THAL): ↑ (1-1.49 times higher than vehicle)
- phosphoLEA level vs vehicle (PND 35 THAL): ↑ (1-1.49 times higher than vehicle)
- changes in NAEs (PND 35 brain): 17
- changes in PG levels (PND 35 brain): 15
- changes in lipoamines derived from AA (PND 35 brain): 50
- decreases in 2-acyl glycerol levels (PND 35 brain): 15
- decreases in PG levels (PND 35 brain): 5
- decreases in free fatty acid levels (PND 35 brain): Eight
- increases in PG levels (PND 35 brain): 10
- percentage of detected lipids modified with acute CP (PND 35 brain, 529 detected): 43.67%
- 2-arachidonoyl glycerol, Direction (relative to Veh) (PND 35 hypothalamus): ↓
- 2-arachidonoyl glycerol, Magnitude (x Veh level) (PND 35 hypothalamus): 0.39 x Veh level
- 2-linoleoyl glycerol Direction (relative to Veh) (PND 35 hypothalamus): ↓
- 2-linoleoyl glycerol Magnitude (x Veh level) (PND 35 hypothalamus): 0.63 x Veh level
- 2-oleoyl glycerol, Direction (relative to Veh) (PND 35 hypothalamus): ↓
- 2-oleoyl glycerol, Magnitude (x Veh level) (PND 35 hypothalamus): 0.55 x Veh level
- 2-palmitoyl glycerol, Direction (relative to Veh) (PND 35 hypothalamus): ↑
- 2-palmitoyl glycerol, Magnitude (x Veh level) (PND 35 hypothalamus): 1.29 x Veh level
- Arachidonic acid, Direction (relative to Veh) (PND 35 hypothalamus): ↓
- Arachidonic acid, Magnitude (x Veh level) (PND 35 hypothalamus): 0.85 x Veh level
- Linoleic acid, Direction (relative to Veh) (PND 35 hypothalamus): ↓
- Linoleic acid, Magnitude (x Veh level) (PND 35 hypothalamus): 0.75 x Veh level
- N-arachidonoyl GABA Direction (relative to Veh) (PND 35 hypothalamus): ↓
- N-arachidonoyl GABA Magnitude (x Veh level) (PND 35 hypothalamus): 0.74 x Veh level
- N-arachidonoyl alanine Magnitude (x Veh level) (PND 35 hypothalamus): 0.55 x Veh level
- N-arachidonoyl alanine, Direction (relative to Veh) (PND 35 hypothalamus): ↓
- N-arachidonoyl ethanolamine, Direction (relative to Veh) (PND 35 hypothalamus): ↓
- N-arachidonoyl ethanolamine, Magnitude (x Veh level) (PND 35 hypothalamus): 0.76 x Veh level
- N-arachidonoyl glycine Direction (relative to Veh) (PND 35 hypothalamus): ↓
- N-arachidonoyl glycine Magnitude (x Veh level) (PND 35 hypothalamus): 0.70 x Veh level
- N-arachidonoyl phenylalanine, Direction (relative to Veh) (PND 35 hypothalamus): ↓
- N-arachidonoyl phenylalanine, Magnitude (x Veh level) (PND 35 hypothalamus): 0.86 x Veh level
- N-arachidonoyl taurine Direction (relative to Veh) (PND 35 hypothalamus): ↓
- N-arachidonoyl taurine Magnitude (x Veh level) (PND 35 hypothalamus): 0.70 x Veh level
- N-docosahexaenoyl GABA Direction (relative to Veh) (PND 35 hypothalamus): ↓
- N-docosahexaenoyl GABA Magnitude (x Veh level) (PND 35 hypothalamus): 0.68 x Veh level
- N-docosahexaenoyl ethanolamine, Direction (relative to Veh) (PND 35 hypothalamus): ↓
- N-docosahexaenoyl ethanolamine, Magnitude (x Veh level) (PND 35 hypothalamus): 0.59 x Veh level
- N-linoleoyl alanine direction (relative to Veh) (PND 35 hypothalamus): ↓
- N-linoleoyl alanine magnitude (x Veh level) (PND 35 hypothalamus): 0.77 x Veh level
- N-oleoyl GABA Magnitude (x Veh level) (PND 35 hypothalamus): 0.87 x Veh level
- N-oleoyl GABA direction (relative to Veh) (PND 35 hypothalamus): ↓
- N-oleoyl alanine Magnitude (x Veh level) (PND 35 hypothalamus): 0.84 x Veh level
- N-oleoyl alanine direction (relative to Veh) (PND 35 hypothalamus): ↓
- N-oleoyl ethanolamine, Direction (relative to Veh) (PND 35 hypothalamus): ↓
- N-oleoyl ethanolamine, Magnitude (x Veh level) (PND 35 hypothalamus): 0.65 x Veh level
- N-palmitoyl ethanolamine, Direction (relative to Veh) (PND 35 hypothalamus): ↓
- N-palmitoyl ethanolamine, Magnitude (x Veh level) (PND 35 hypothalamus): 0.66 x Veh level
- N-palmitoyl leucine, Direction (relative to Veh) (PND 35 hypothalamus): ↑
- N-palmitoyl leucine, Magnitude (x Veh level) (PND 35 hypothalamus): 1.30 x Veh level
- N-stearoyl ethanolamine direction (relative to Veh) (PND 35 hypothalamus): ↓
- N-stearoyl ethanolamine magnitude (x Veh level) (PND 35 hypothalamus): 0.73 x Veh level
- Oleic acid, Direction (relative to Veh) (PND 35 hypothalamus): ↓
- Oleic acid, Magnitude (x Veh level) (PND 35 hypothalamus): 0.72 x Veh level
- PGE2 Direction (relative to Veh) (PND 35 hypothalamus): ↓
- PGE2 Magnitude (x Veh level) (PND 35 hypothalamus): 0.78 x Veh level
- PGF2α Direction (relative to Veh) (PND 35 hypothalamus): ↑
- PGF2α Magnitude (x Veh level) (PND 35 hypothalamus): 1.27 x Veh level
- phoshoLEA direction (relative to Veh) (PND 35 hypothalamus): ↑
- phoshoLEA magnitude (x Veh level) (PND 35 hypothalamus): 1.47 x Veh level
- 2-linoleoyl glycerol: Magnitude (x Veh level) (PND 35 midbrain, 3mg/kg): 0.76 x Veh level
- 6-ketoPGF1α: Magnitude (x Veh level) (PND 35 midbrain, 3mg/kg): 0.86 x Veh level
- Arachidonic acid: Magnitude (x Veh level) (PND 35 midbrain, 3mg/kg): 0.88 x Veh level
- N-arachidonoyl GABA: Magnitude (x Veh level) (PND 35 midbrain, 3mg/kg): 0.69 x Veh level
- N-arachidonoyl alanine: Magnitude (x Veh level) (PND 35 midbrain, 3mg/kg): 0.79 x Veh level
- N-arachidonoyl glycine: Magnitude (x Veh level) (PND 35 midbrain, 3mg/kg): 0.89 x Veh level
- N-arachidonoyl serine: Magnitude (x Veh level) (PND 35 midbrain, 3mg/kg): 0.82 x Veh level
- N-arachidonoyl taurine: Magnitude (x Veh level) (PND 35 midbrain, 3mg/kg): 0.87 x Veh level
- N-arachidonoyl tyrosine: Magnitude (x Veh level) (PND 35 midbrain, 3mg/kg): 0.81 x Veh level
- N-docosahexaenoyl GABA: Magnitude (x Veh level) (PND 35 midbrain, 3mg/kg): 0.72 x Veh level
- N-docosahexaenoyl alanine: Magnitude (x Veh level) (PND 35 midbrain, 3mg/kg): 0.82 x Veh level
- N-docosahexaenoyl glycine: Magnitude (x Veh level) (PND 35 midbrain, 3mg/kg): 0.88 x Veh level
- N-docosahexaenoyl leucine: Magnitude (x Veh level) (PND 35 midbrain, 3mg/kg): 1.40 x Veh level
